Experimental data from patent US11266655B2, “Methods and compositions for treating urea cycle disorders” (Camp4 Therapeutics Corporation, priority 2019, dated 2022).
Read-outs that look alike come from different tables or passages of the source.

What was measured:
[1] = system: CPS1; test: RNA-seq of compound-treated primary human hepatocytes, CPS1 expression; format: cell-based; details: primary human hepatocytes; for CPS1 expression, Fold change (Log 2) vs untreated: RNA-seq; for Relative CPS1 level vs Untreated (±Standard Deviation): triplicate (Table 19, FIG. 11)
[2] = system: ASS1; test: RNA-seq of compound-treated primary human hepatocytes, ASS1 expression; format: cell-based; details: primary human hepatocytes; for Fold change (Log 2) vs untreated, ASS1 expression: RNA-seq (Table 4); for Relative ASS1 level vs Untreated (±Standard Deviation): 10 μM, triplicate (Table 15, FIG. 7)
[3] = system: urea cycle genes; test: RNA-seq of primary human hepatocytes, compounds that modulate multiple urea cycle-related genes; format: cell-based; details: primary human hepatocytes, RNA-seq; for Up-regulated Genes: urea cycle-related genes significantly increased (Table 10)
[4] = system: ARG1; test: RNA-seq of compound-treated primary human hepatocytes, ARG1 expression; format: cell-based; details: for Fold change (Log 2) vs untreated, ARG1 expression / Relative ARGI level vs Untreated (±Standard Deviation): primary human hepatocytes; for Fold change (Log 2) vs untreated, ARG1 expression: RNA-seq (Table 7); for Relative ARGI level vs Untreated (±Standard Deviation): triplicate (Table 17, FIG. 9)
[5] = system: SLC25A15; test: RNA-seq of compound-treated primary human hepatocytes, SLC25A15 expression; format: cell-based; details: for Relative SLC25A15 level vs Untreated (±Standard Deviation): primary human hepatocytes, triplicate (Table 24, FIG. 16A-B)
[6] = system: NAGS; format: cell-based, human; details: primary human hepatocytes, triplicate (Table 21, FIG. 13)
[7] = Example 11, relative mRNA vs DMSO

Q: How did the “CPS1 expression, Fold change (Log 2) vs untreated” value [1] turn out when `C[C@]12CC[C@H]3[C@@H](CCC4=CC(=O)CC[C@@]43C)[C@@H]1CC[C@@H]2C(=O)CO` [Deoxycorticosterone] was run?
A: 3.79 Log 2

Q: What about the “Fold change (Log 2) vs untreated, ASS1 expression” value [2] of the same molecule?
A: 0.6 Log 2

Q: What about the “number of urea cycle genes whose expression was significantly up-regulated” value [3] of the same molecule?
A: four

Q: What about the “Up-regulated Genes” value [3] of the same molecule?
A: CPS1, ASS1, ARG1, SLC25A15

Q: And the “Fold change (Log 2) vs untreated, ARG1 expression” value [4]?
A: 1.37 Log 2

Q: `CCN(CC)CCCCNc1ncc2cc(-c3cc(OC)cc(OC)c3)c(NC(=O)NC(C)(C)C)nc2n1` [PD173074] was tested. Which “Relative CPS1 level vs Untreated (±Standard Deviation)” value ([1]; 3 μM) did it give?
A: 1.35 ± 0.03

Q: What about the “Relative SLC25A15 level vs Untreated (±Standard Deviation)” value ([5]; 3 μM) of the same molecule?
A: 1.30 ± 0.12

Q: And the “Relative NAGS level vs Untreated (±Standard Deviation)” value ([6]; 10 μM)?
A: 1.30 ± 0.31

Q: With `COc1cc2c(Oc3ccc(NC(=O)C4(C(=O)Nc5ccc(F)cc5)CC4)cc3F)ccnc2cc1OCCCN1CCOCC1` [Foretinib] as the molecule, how does the “Relative CPS1 level vs Untreated (±Standard Deviation)” value ([1]; 3 μM) read?
A: 1.37 ± 0.30

Q: And the “Relative CPS1 level vs Untreated (±Standard Deviation)” value ([1]; 10 μM)?
A: 1.75 ± 0.30

Q: And the “Relative ASS1 level vs Untreated (±Standard Deviation)” value [2]?
A: 1.82 ± 0.11

Q: And the “Relative ARGI level vs Untreated (±Standard Deviation)” value ([4]; 3 μM)?
A: 1.40 ± 0.00

Q: And the “Relative ARGI level vs Untreated (±Standard Deviation)” value ([4]; 10 μM)?
A: 1.61 ± 0.12

Q: What about the “Relative SLC25A15 level vs Untreated (±Standard Deviation)” value ([5]; 10 μM) of the same molecule?
A: 1.97 ± 0.15

Q: And the “Relative NAGS level vs Untreated (±Standard Deviation)” value ([6]; 10 μM)?
A: 1.45 ± 0.38

Q: Which “Relative CPS1 level vs Untreated (±Standard Deviation)” value ([1]; 10 μM) does the source give for `S=C(NCc1ccc2c(c1)OCO2)N1CCN(c2ncnc3c2oc2ccccc23)CC1` [Amuvatinib] here?
A: 2.07 ± 0.42

Q: What about the “Fold change (Log 2) vs untreated, ASS1 expression” value [2] of the same molecule?
A: 0.69 Log 2

Q: And the “number of urea cycle genes whose expression was significantly up-regulated” value [3]?
A: five

Q: What about the “Up-regulated Genes” value [3] of the same molecule?
A: CPS1, ASS1, ASL, OTC, ARG1

Q: What about the “Relative ARGI level vs Untreated (±Standard Deviation)” value ([4]; 10 μM) of the same molecule?
A: 1.71 ± 0.19

Q: And the “Fold change (Log 2) vs untreated, ARG1 expression” value [4]?
A: 2.5 Log 2

Q: Which “Relative CPS1 level vs Untreated (±Standard Deviation)” value ([1]; 0.3 μM) does the source give for `Cc1cc(C(=O)NOCCO)c(Nc2ccc(I)cc2F)n(C)c1=O` [AZD8330] here?
A: 1.33 ± 0.03

Q: What about the “Relative CPS1 level vs Untreated (±Standard Deviation)” value ([1]; 3 μM) of the same molecule?
A: 1.60 ± 0.24

Q: For `O=C(NOCCO)c1cc(CN2OCCCC2=O)c(F)c(F)c1Nc1ccc(I)cc1F` [Compound R04987655], which “Relative CPS1 level vs Untreated (±Standard Deviation)” value ([1]; 1 μM) is on record?
A: 1.46 ± 0.27

Q: What about the “Relative CPS1 level vs Untreated (±Standard Deviation)” value ([1]; 10 μM) of the same molecule?
A: 1.33 ± 0.21

Q: What does the source list for `O=C(NCCCNc1nc(Nc2cccc(NC(=O)N3CCCC3)c2)ncc1I)c1cccs1` [BX795]?
A: Relative CPS1 level vs Untreated (±Standard Deviation) ([1]; 3 μM): 1.75 ± 1.03; Relative ARGI level vs Untreated (±Standard Deviation) ([4]; 3 μM): 1.33 ± 0.43; Relative ARGI level vs Untreated (±Standard Deviation) ([4]; 10 μM): 1.34 ± 0.41

Q: How did the “Relative CPS1 level vs Untreated (±Standard Deviation)” value ([1]; 3 μM) turn out when `NC(=O)c1ccc(I)c([N+](=O)[O-])c1` [Iniparib] was run?
A: 1.44 ± 0.01

Q: And the “Relative ARGI level vs Untreated (±Standard Deviation)” value ([4]; 3 μM)?
A: 1.32 ± 0.15

Q: What about the “Relative NAGS level vs Untreated (±Standard Deviation)” value ([6]; 0.3 μM) of the same molecule?
A: 1.41 ± 0.00

Q: `CC(=O)NCC(=O)N1[C@@H]2CC[C@H]1c1ccc(Nc3ncc(C(F)(F)F)c(NC4CCC4)n3)cc12` [PF-3814735] was tested. Which “Relative CPS1 level vs Untreated (±Standard Deviation)” value ([1]; 3 μM) did it give?
A: 2.25 ± 0.74

Q: What about the “Relative ASS1 level vs Untreated (±Standard Deviation)” value [2] of the same molecule?
A: 1.56 ± 0.17

Q: And the “Relative ARGI level vs Untreated (±Standard Deviation)” value ([4]; 1 μM)?
A: 1.44 ± 0.02

Q: And the “Relative ARGI level vs Untreated (±Standard Deviation)” value ([4]; 3 μM)?
A: 2.45 ± 0.43

Q: And the “increase in ARG1 gene expression (Tables 17, 18, FIG. 9, 10)” value [4, 7]?
A: greatest increase

Q: And the “Relative SLC25A15 level vs Untreated (±Standard Deviation)” value ([5]; 1 μM)?
A: 1.35 ± 0.11

Q: What about the “Relative SLC25A15 level vs Untreated (±Standard Deviation)” value ([5]; 3 μM) of the same molecule?
A: 3.06 ± 0.51

Q: What about the “Relative SLC25A15 level vs Untreated (±Standard Deviation)” value ([5]; 10 μM) of the same molecule?
A: 2.41 ± 0.14

Q: What about the “Increase in SLC25A15 gene expression (qualitative)” value [5, 7] of the same molecule?
A: greatest increase

B1: GDF10 (BMP3b): member of the BMP family and the TGF-B superfamily (protein, UniProt P55107 369-478, looked up)
Growth/differentiation factor …: QWDEPRVCSRRYLKVDFADIGWNEWIISPKSFDAYYCAGACEFPMPKIVRPSNHATIQSIVRAVGIIPGIPEPCCVPDKMNSLGVLFLDENRNVVLKVYPNMSVDTCACR
Q: With B1 as the molecule, how does the “CPS1 expression, Fold change (Log 2) vs untreated” value [1] read?
A: 1.66 Log 2
